Assay results: patent publication US11685734B2, “ATM kinase inhibitors and compositions and methods of use thereof” (CHDI Foundation, Inc., priority 2019, dated 2023)

How the values were obtained:
[1] = biological target: Recombinant, full length human FLAG-tagged ATM (Homo sapiens (Human), UniProt Q13315); experiment: ATM ELISA for p53 S15 phosphorylation; assay type: biochemical; settings: for IC50: 0.75 nM ATM, 25 nM p53, 10 μM ATP, 30 min at 20° C., read-out: ATM BIO IC50
Description: ATM: Recombinant, full length human FLAG-tagged ATM activity (Eurofins 14-933) was measured in an ELISA for p53 S15 phosphorylation, in a 384 well V-bottom polypropylene plate (Greiner Bio One 781280). Reactions contained 0.75 nM ATM, 25 nM full length myc tagged p53 (Eurofins 23-034), 10 μM UltraPure ATP (Promega V915B) and serial dilutions of inhibitors (0.1% DMSO final) in 25 mM HEPES, pH 7.5. 5 mM MgCl2, 2.5 mM MnCl2, 0.006% Brij-35, 0.5% glycerol, 0.1 mg/ml BSA, 0.5 mM DTT and were allowed to proceed for 30 min at 20° C. 70 mM EDTA final terminated the kinase reactions. An aliquot of the terminated reaction (25 μl) was transferred to a 384-well, high binding microplate (Greiner Bio One 781061), precoated with anti-myc capture antibody overnight (Millipore 05-724) diluted in 1:1000 in PBS, then blocked with Odyssey blocking buffer (LI-COR Biosciences 92740000) for 60 min at 20° C. The terminated reaction was allowed to capture for 2 h at 20° C. Phosphorylation was measured using an antibody specific to p53 S15 phosphorylation (1:5000 Abcam ab38497), anti-rabbit HRP (1:1000 Cell Signalling Technology, 7074) and TMB (ab171522). Antibodies were diluted in Odyssey blocking buffer and incubated for 60 min at 20° C. Three washes with PBS containing 0.05% (v/v) Tween 20 (PBS-T) were performed between each incubation. The TMB reaction was stopped with an equal volume of 0.2 M sulfuric acid and absorbance read at 450 nm on the Perkin Elmer Envision within 30 min of terminating the reaction. […] IC50 values represent the mean from at least two independent experiments.

cellular ATM activity = cellular ATM activity (Homo sapiens (Human), UniProt Q13315); experiment: Inhibition of cellular ATM activity: etoposide-stimulated KAP1 phosphorylation in U20S cells; assay type: cell-based; settings: 100 μM etoposide, 60 min, read-out: ATM CELL IC50
Description: Inhibition of cellular ATM activity was determined by changes in etoposide-stimulated KAP1 phosphorylation, based on the work of Guo et al. 2014.
Cryopreserved U20S cells were plated overnight at 6 k cells/well in black walled, clear bottomed 384 well plates (Greiner Bio One 781090). After overnight incubation (37 C, 5% CO2), cells were incubated with titrations of test compounds (0.3% DMSO final) in the presence of 100 μM etoposide (Sigma E1383) to stimulate ATM via induction of double stranded DNA breaks. After 60 min, cells were fixed using 100% cold methanol and incubated at −20° C. for 10 min. Fixed cells were washed with PBS containing 0.05% (v/v) Tween 20 (PBS-T) prior to a 60 minute blocking step in Odyssey blocking buffer (LI-COR Biosciences 92740000). Primary antibodies (1:1000 phosphorylated KAP1: Cell Signalling Technology 4127, 1:5000 total KAP1: Cell Signaling Technology 5868) were diluted in Odyssey blocking buffer and incubated overnight at 4° C., before addition of IRDye(R) conjugated secondary antibodies (LI-COR Biociences 926-32211, LI-COR Biosciences 926-68070) diluted 1:2000 in Odyssey blocking buffer for 60 min at room temperature and detection by LI-COR Odyssey (ImageStudio version 2.1.10, focus offset 4 mm, resolution 169 μm, lowest quality, intensities of 1 and 3 for 700 and 800 channels respectively). Immunoreactivity was quantified and the ratio of phosphorylated KAP1 calculated by dividing by the total KAP1 immunoreactivity. The percentage of inhibition was calculated for each concentration of compound using 100% (100 μM etoposide+30 μM KU-60019) and 0% effect controls (100 μM etoposide+DMSO). IC50 values represent the mean from at least two independent experiments.

Sequence of cellular ATM activity (Q13315 whole entry): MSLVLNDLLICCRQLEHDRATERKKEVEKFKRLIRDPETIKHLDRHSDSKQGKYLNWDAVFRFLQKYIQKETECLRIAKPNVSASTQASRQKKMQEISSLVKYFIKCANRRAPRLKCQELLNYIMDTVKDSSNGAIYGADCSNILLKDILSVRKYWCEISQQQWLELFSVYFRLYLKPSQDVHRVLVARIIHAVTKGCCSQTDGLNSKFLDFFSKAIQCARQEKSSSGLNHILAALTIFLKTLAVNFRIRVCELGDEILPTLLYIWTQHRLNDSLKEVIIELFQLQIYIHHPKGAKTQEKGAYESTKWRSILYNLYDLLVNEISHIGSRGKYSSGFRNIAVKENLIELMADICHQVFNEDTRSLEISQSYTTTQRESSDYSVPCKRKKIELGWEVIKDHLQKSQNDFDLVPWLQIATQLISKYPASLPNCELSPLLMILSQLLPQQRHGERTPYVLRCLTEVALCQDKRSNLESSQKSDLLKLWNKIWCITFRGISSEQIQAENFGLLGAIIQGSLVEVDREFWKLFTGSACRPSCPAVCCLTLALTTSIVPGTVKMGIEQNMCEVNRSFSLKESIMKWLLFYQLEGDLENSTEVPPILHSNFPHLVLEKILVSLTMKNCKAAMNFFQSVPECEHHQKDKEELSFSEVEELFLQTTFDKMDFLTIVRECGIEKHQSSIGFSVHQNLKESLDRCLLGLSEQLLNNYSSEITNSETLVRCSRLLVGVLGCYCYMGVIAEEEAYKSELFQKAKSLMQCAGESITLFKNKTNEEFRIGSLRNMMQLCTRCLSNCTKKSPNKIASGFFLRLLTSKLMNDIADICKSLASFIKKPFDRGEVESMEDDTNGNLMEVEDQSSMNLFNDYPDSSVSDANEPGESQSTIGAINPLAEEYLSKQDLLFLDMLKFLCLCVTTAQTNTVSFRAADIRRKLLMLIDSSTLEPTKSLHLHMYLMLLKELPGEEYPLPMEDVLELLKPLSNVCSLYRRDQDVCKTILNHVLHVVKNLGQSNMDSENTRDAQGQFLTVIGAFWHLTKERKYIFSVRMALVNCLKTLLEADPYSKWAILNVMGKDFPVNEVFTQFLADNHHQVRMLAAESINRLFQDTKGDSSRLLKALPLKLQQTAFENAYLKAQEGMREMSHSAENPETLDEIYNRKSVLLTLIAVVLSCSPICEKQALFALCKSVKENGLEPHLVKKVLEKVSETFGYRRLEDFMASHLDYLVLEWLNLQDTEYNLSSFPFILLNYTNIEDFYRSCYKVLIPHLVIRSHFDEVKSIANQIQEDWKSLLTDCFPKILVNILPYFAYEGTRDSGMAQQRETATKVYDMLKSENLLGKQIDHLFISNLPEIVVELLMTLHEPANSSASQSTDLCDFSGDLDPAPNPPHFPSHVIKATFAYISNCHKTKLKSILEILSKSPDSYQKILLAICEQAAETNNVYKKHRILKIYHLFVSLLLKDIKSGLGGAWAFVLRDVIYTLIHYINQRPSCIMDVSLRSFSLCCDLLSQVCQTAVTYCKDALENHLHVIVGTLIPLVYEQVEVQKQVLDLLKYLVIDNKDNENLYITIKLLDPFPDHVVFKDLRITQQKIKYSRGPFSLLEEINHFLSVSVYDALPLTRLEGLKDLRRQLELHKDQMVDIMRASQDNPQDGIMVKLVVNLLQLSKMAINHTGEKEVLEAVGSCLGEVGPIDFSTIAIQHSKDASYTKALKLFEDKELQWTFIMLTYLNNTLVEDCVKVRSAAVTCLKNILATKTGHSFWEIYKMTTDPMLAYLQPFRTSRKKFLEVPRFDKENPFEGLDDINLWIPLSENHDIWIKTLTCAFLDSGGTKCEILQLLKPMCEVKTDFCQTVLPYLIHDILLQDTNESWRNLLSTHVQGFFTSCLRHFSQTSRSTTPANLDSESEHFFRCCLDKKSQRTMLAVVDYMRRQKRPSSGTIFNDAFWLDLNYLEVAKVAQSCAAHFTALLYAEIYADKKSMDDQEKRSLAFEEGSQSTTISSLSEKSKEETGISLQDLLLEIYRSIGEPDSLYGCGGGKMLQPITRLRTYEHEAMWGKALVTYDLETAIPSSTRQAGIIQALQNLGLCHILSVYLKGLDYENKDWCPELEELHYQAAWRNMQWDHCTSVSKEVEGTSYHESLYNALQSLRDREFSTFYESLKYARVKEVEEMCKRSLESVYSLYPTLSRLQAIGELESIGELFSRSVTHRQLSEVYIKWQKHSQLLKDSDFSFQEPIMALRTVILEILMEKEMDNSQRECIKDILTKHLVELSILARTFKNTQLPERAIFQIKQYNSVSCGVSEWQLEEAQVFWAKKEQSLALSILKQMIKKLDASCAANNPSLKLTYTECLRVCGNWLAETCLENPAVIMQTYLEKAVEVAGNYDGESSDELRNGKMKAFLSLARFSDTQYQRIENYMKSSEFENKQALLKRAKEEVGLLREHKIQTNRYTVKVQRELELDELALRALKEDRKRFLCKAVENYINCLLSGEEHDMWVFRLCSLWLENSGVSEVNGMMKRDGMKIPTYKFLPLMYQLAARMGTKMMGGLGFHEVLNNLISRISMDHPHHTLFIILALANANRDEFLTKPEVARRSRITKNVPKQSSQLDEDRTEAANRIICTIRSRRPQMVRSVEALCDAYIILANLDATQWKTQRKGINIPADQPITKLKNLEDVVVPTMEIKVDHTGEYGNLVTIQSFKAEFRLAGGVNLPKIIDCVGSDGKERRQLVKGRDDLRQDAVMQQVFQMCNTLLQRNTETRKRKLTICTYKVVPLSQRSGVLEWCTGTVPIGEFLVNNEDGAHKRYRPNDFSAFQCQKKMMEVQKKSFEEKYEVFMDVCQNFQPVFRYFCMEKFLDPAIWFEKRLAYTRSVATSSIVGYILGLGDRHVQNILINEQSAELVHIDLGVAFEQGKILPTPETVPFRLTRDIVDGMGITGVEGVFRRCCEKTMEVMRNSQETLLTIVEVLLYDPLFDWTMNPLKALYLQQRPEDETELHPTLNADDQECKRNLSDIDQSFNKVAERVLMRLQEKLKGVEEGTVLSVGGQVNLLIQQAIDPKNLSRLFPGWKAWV
Sequence of Recombinant, full length human FLAG-tagged ATM (Q13315 whole entry): as above

Row | IC50 [1] [nM] | IC50 (cellular ATM activity) [nM] | biological activity in the biochemical assay ([1]; qualitative statement used for stereochemical assignment) | SMILES
1 | 33.1 | 1630 |  | CC1C[C@H](Cc2ccccc2)N(c2cc(N3CCOCC3)cc(=O)[nH]2)C1 (single isomer, unassigned) [Example 100, 6-((2R,4R*)-2-benzyl-4-methylpyrrolidin-1-yl)-4-morpholinopyridin-2(1H)-one]
2 | 17.1 | 1410 |  | CC1C[C@H](Cc2ccccc2)N(c2cc(N3CCOCC3)cc(=O)[nH]2)C1 (single isomer, unassigned) [Example 101, 6-((2R,4R*)-2-benzyl-4-methylpyrrolidin-1-yl)-4-morpholinopyridin-2(1H)-one]
3 | 1.5 | 194 |  | CC1CCC[C@H](Cc2ccccc2)N(c2nc(N3CCOCC3)cc(=O)[nH]2)C1 (single isomer, unassigned) [Example 247]
4 | 24 | 1530 |  | CC1OCCN(c2cc(=O)[nH]c(N3CCCC3Cc3ccccc3)n2)C1C (single isomer, unassigned) [Example 352, 2-(2-benzylpyrrolidin-1-yl)-6-(2,3-dimethylmorpholino)pyrimidin-4(3H)-one]
5 | 44.6 | 1020 |  | COc1ccccc1C[C@H]1CCCN1c1cc(N2CCOCC2)cc(=O)[nH]1 [Example 7, (R)-6-(2-(2-methoxybenzyl)pyrrolidin-1-yl)-4-morpholinopyridin-2(1H)-one]
6 | 54.1 | 2930 |  | Cc1ccc(C[C@H]2CCCN2c2cc(N3CCOCC3)cc(=O)[nH]2)cc1 [Example 20, (R)-6-(2-(4-methylbenzyl)pyrrolidin-1-yl)-4-morpholinopyridin-2(1H)-one]
7 | 6.5 | 527 |  | COc1cccc(C[C@H]2CCCCCN2c2cc(N3CCOCC3)cc(=O)[nH]2)c1 [Example 23, (R)-6-(2-(3-methoxybenzyl)azepan-1-yl)-4-morpholinopyridin-2(1H)-one]
8 | 13.7 | 530 |  | Cc1ccccc1C[C@H]1CCCCCN1c1cc(N2CCOCC2)cc(=O)[nH]1 [Example 25, (R)-6-(2-(2-methylbenzyl)azepan-1-yl)-4-morpholinopyridin-2(1H)-one]
9 | 23 | 977 |  | COc1cc(F)ccc1C[C@H]1CCCCCN1c1cc(N2CCOCC2)cc(=O)[nH]1 [Example 50, (R)-6-(2-(4-fluoro-2-methoxybenzyl)azepan-1-yl)-4-morpholinopyridin-2(1H)-one]
10 | 18 | 292 |  | O=c1cc(N2CCOCC2)cc(N2CCCCC[C@@H]2Cc2cccc3c2OCC3)[nH]1 [Example 57, (R)-6-(2-((2,3-dihydrobenzofuran-7-yl)methyl)azepan-1-yl)-4-morpholinopyridin-2(1H)-one]
11 | 42.8 | 933 |  | O=c1cc(N2CCOCC2)cc(N2CCCCC[C@@H]2Cc2ccsc2)[nH]1 [Example 64, (R)-4-morpholino-6-(2-(thiophen-3-ylmethyl)azepan-1-yl)pyridin-2(1H)-one]
12 | 18.7 | 603 |  | COc1ccc(OC)c(C[C@H]2CCCCCN2c2cc(N3CCOCC3)cc(=O)[nH]2)c1 [Example 66]

More lines, now with the values behind:

Row | SMILES | IC50 [1] [nM] | IC50 (cellular ATM activity) [nM] | biological activity in the biochemical assay ([1]; qualitative statement used for stereochemical assignment)
13 | CC(c1ccccc1)C1CCCN1c1nc(N2CCOCC2)cc(=O)[nH]1 (racemic) [Example 252, 6-morpholino-2-((R*)-2-((S*)-1-phenylethyl)pyrrolidin-1-yl)pyrimidin-4(3H)-one] | 63.7 | 2290 | 
14 | CC1CCC[C@H](Cc2ccccc2)N(c2nc(N3CCOCC3)cc(=O)[nH]2)C1 (single isomer, unassigned) [Example 246] | 22.5 | 1070 | 
15 | CC1C[C@H](Cc2ccccc2)N(c2nc(N3CCO[C@H](C)C3)cc(=O)[nH]2)C1 (single isomer, unassigned) [Example 320] | 90.9 | 1680 | 
16 | CC1COCCN1c1cc(=O)[nH]c(N2CCCC2Cc2ccccc2)n1 (single isomer, unassigned) [Example 339, 2-(2-benzylpyrrolidin-1-yl)-6-(3-methylmorpholino)pyrimidin-4(3H)-one] | 34.5 | 1560 | 
17 | O=c1cc(N2CCOCC2)cc(N2CCC[C@@H]2Cc2ccccc2)[nH]1 [Example 1, (R)-6-(2-benzylpyrrolidin-1-yl)-4-morpholinopyridin-2(1H)-one] | 36.2 | 3380 | 
18 | O=c1cc(N2CCOCC2)cc(N2CCC[C@H]2Cc2ccccc2)[nH]1 [Example 2, (S)-6-(2-benzylpyrrolidin-1-yl)-4-morpholinopyridin-2(1H)-one] |  |  | lack of biological activity
19 | COc1ccc(C[C@H]2CCCN2c2cc(N3CCOCC3)cc(=O)[nH]2)cc1 [Example 13, (R)-6-(2-(4-methoxybenzyl)pyrrolidin-1-yl)-4-morpholino pyridin-2(1H)-one] | 70.5 | 4490 | 
20 | O=c1cc(N2CCOCC2)cc(N2CCC[C@@H]2Cc2ccc(F)cc2)[nH]1 [Example 16, (R)-6-(2-(4-fluorobenzyl)pyrrolidin-1-yl)-4-morpholino pyridin-2(1H)-one] | 89.4 | 4160 | 
21 | COc1cccc(C[C@H]2CCCN2c2cc(N3CCOCC3)cc(=O)[nH]2)c1 [Example 22, (R)-6-(2-(3-methoxybenzyl)pyrrolidin-1-yl)-4-morpholinopyridin-2(1H)-one] | 55.3 | 2680 | 
22 | COc1ccccc1C[C@H]1CCCCCN1c1cc(N2CCOCC2)cc(=O)[nH]1 [Example 27, (R)-6-(2-(2-methoxybenzyl)azepan-1-yl)-4-morpholinopyridin-2(1H)-one] | 16.6 | 501 | 
23 | COc1ccc(C[C@H]2CCCCCN2c2cc(N3CCOCC3)cc(=O)[nH]2)cc1 [Example 29, 6-[(2R)-2-[(4-methoxyphenyl)methyl]azepan-1-yl]-4-morpholino-1H-pyridin-2-one] | 32.5 | 371 | 
24 | O=c1cc(N2CCOCC2)cc(N2CCCCC[C@@H]2Cc2cccs2)[nH]1 [Example 31, 4-morpholino-6-[(2R)-2-(2-thienylmethyl)azepan-1-yl]-1H-pyridin-2-one] | 12.3 | 260 | 
25 | O=c1cc(N2CCOCC2)cc(N2CCCCC[C@@H]2Cc2ccccn2)[nH]1 [Example 33, (R)-4-morpholino-6-(2-(pyridin-2-ylmethyl)azepan-1-yl)pyridin-2(1H)-one] | 92.4 | 1780 | 
26 | O=c1cc(N2CCOCC2)cc(N2C[C@H]3C[C@H]3[C@@H]2Cc2ccccc2)[nH]1 [Example 43, 6-((1R,2S,5S)-2-benzyl-3-azabicyclo[3.1.0]hexan-3-yl)-4-morpholinopyridin-2(1H)-one] | 9.6 | 293 | 
27 | COc1ccccc1C[C@H]1[C@H](C)CCN1c1cc(N2CCOCC2)cc(=O)[nH]1 [Example 47, 6-((2S,3R)-2-(2-methoxybenzyl)-3-methylpyrrolidin-1-yl)-4-morpholinopyridin-2(1H)-one] | 8.3 | 347 | 
28 | O=c1cc(N2CCOCC2)cc(N2CCCCC[C@@H]2Cc2ccc(F)cc2)[nH]1 [Example 52, (R)-6-(2-(4-fluorobenzyl)azepan-1-yl)-4-morpholino pyridin-2(1H)-one] | 35.3 | 839 | 
29 | COc1ccccc1C[C@H]1CC(F)(F)CCCN1c1cc(N2CCOCC2)cc(=O)[nH]1 [Example 62, (S)-6-(4,4-difluoro-2-(2-methoxybenzyl)azepan-1-yl)-4-morpholinopyridin-2(1H)-one] | 40.5 | 1250 | 
